From patent US11261160B2, “Process for the preparation of N-(4-(6,7-dimethoxyquinolin-4-yloxy)phenyl)-N′-(4-fluorophenyl)cyclopropane-1, 1-dicarboxamide, (2S)-hydroxybutanedioate and its polymorphs thereof” (MSN LABORATORIES PRIVATE LIMITED, R&D CENTER, priority 2016, dated 2022)

Legend:
[1] = Thermal stability at 60° C. (P-XRD); assay type: physicochemical; conditions: heating in a vacuum dryer at 60° C. for 24 hours; 3.0 gms sample
Description: Thermal Stability at 60° C.:
Samples of crystalline form-S of Cabozantinib (S)-malate (3.0 gms) is subjected to heating in a vacuum dryer at 60° C. for 24 hours.
(§1) PXRD analysis of compounds produced by the present invention were carried out using BRUKER IDS ADVANCE/AXS X-Ray diffractometer using Cu Kα radiation of wavelength 1.5406 A° and continuous scan speed of 0.03°/min.

[2] = Hygroscopic stability for 24 hours (P-XRD); assay type: physicochemical; conditions: kept in the desiccator for 24 hours; 3.0 gms sample
Description: Hygroscopic Stability for 24 Hours:
Samples of crystalline form-S of Cabozantinib (S)-malate (3.0 gms) is kept in the desiccator for 24 hours.
as §1

Thermal stability at 60° C. by P-XRD pattern [1]: stable
Hygroscopic stability for 24 hours by P-XRD pattern [2]: stable
Structure (SMILES): COc1cc2nccc(Oc3ccc(NC(=O)C4(C(=O)Nc5ccc(F)cc5)CC4)cc3)c2cc1OC.O=C(O)C[C@H](O)C(=O)O [N-(4-(6,7-dimethoxyquinolin-4-yloxy)phenyl)-N′-(4-fluorophenyl)cyclopropane-1,1-dicarboxamide (S)-malate]
